# Measurements taken from US10100372B2, “Recombinant RSV reporter virus” (priority 2014, dated 2018).
# Experiments:
# [1] = test system: recRSV-L19FD489E-fireSMASh; format: cell-based
# [2] = test system: recRSV-L19FD489E-fireSMASh; format: cell-based, Respiratory Syncytial Virus; details: 10 μM; 96-well; BEAS-2B
# RSV F protein [3] = biological target: T1, RSV F protein (Human respiratory syncytial virus, UniProt P12568, E66K/H515N/I79M/K191R/N371Y/N80K/T101P/T357K/V557I); format: cell-based
# T1 construct: expressed in transfected cells; host or cells: HEp-2 cells infected with recRSV A2-L19F-mKate2; F is expressed from the viral genome, not from a plasmid
# T1 sequence (P12568 137-574, looked up, stated change not applied): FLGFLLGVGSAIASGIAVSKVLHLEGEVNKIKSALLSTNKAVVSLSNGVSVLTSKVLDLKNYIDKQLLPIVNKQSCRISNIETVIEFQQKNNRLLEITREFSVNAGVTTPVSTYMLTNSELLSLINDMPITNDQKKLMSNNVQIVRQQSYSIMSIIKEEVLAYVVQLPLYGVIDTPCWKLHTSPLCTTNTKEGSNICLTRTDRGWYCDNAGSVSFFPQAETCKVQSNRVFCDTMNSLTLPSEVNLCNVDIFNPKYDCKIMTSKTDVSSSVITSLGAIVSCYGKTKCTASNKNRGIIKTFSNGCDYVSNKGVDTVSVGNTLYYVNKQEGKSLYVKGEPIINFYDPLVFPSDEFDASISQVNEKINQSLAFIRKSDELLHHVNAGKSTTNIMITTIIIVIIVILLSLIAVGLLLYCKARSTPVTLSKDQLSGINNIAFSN
# T1 sequence (P12568 26-109, looked up, stated change not applied): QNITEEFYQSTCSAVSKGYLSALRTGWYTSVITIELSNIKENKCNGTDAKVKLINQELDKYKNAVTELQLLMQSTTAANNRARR
# [4] = test system: host cell metabolic activity; details: sourced compound
# RSV F protein [5] = biological target: T1, RSV F protein; format: cell-based; details: plasmid-based reporter assay
# recRSV A2-L19F [6] = assay: microbe, parasite or virus in culture; format: cell-based
# recRSV A2-L19F-renilla = assay: microbe, parasite or virus in culture; format: cell-based; details: human respiratory syncytial virus; 0.5 μM concentration counterscreens; read-out: RSV inhibition
# recRSV A2-L19F [7] = format: cell-based; details: increasing compound concentrations
# recRSV A2-L19F-ren = format: cell-based; details: GPAR-3710 added later than four hours post-infection; JMN3-003 added eight hours post-infection
Compound,effect on progeny virus titers ([1]; 3 μM ASV),reduction of firefly luciferase activity ([1]; growth in the presence of 3 μM ASV),hit status in co-infection validation assay with pan-resistant RSV-FD489E [2],adaptation period until robust resistance (growth in 30 μM compound) (RSV F protein [3]; gradual adaptation to increasing compound concentrations),"reported resistance sites (RSV F protein [3]; resistance sites in the RSV F protein, identified through viral adaptation)",cytotoxicity [4],RSV F protein-mediated membrane fusion activity (RSV F protein [5]),active concentrations against different RSV strains (recRSV A2-L19F [6]; dose-dependent inhibition of different RSV strains),"EC50 (recRSV A2-L19F [6]; human respiratory syncytial virus, active concentration based on in vitro assays, RSV entry inhibitor)",inhibition at 0.5 µM (recRSV A2-L19F-renilla),RSV entry rate (recRSV A2-L19F [7]),antiviral activity in time-of-addition study (recRSV A2-L19F-ren)
"C=C[C@@H]1C[C@]1(NC(=O)[C@@H]1C[C@@H](Oc2ncc(OC)c3ccc(Cl)cc23)CN1C(=O)[C@@H](NC(=O)OC(C)(C)C)C(C)(C)C)C(=O)NS(=O)(=O)C1CC1 [ASV, asunaprevir]",no effect,approximately 90%,–,–,–,–,–,–,–,–,–,–
Cc1ccc(-n2c(SCC(=O)N/N=C/c3c4ccccc4cc4ccccc34)nnc2-c2ccccc2)cc1 [GPAR-3710],–,–,did not emerge as hits,≤ 30 days,FT400A FD401E FD486E FF488I FF488S FD489E,low cytotoxicity,specifically and potently inhibited,nano- to low micromolar range,130 nM,> 90%,"significant, dose-dependent reduction",essentially all antiviral activity was lost
